According to patent US8481732B2 (Incyte Corporation, priority 2009, dated 2013):

Biological target: T1, histamine H4 receptor (Homo sapiens, UniProt Q9H3N8)
T1 construct: expressed in transfected cells; host or cells: HEK293SFM cells (membrane preparation)
Assay: H4 Membrane Binding Assay (3H-Histamine displacement)
Conditions: membranes of recombinant HEK293SFM cells, 10 nM 3H-Histamine, 1.5 hr at room temperature
In short: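 Membranes from HEK293SFM cells expressing human H4 (also human H1–H3, mouse H4), prepared in ice-cold 50 mM Tris-HCl pH 7.5. [3H]-histamine displacement, nonspecific binding defined with 1000× unlabeled ligand. Bound radioactivity separated on PEI-treated GF/B filters and measured by liquid scintillation counting.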

Row | IC50 [nM] | SMILES
1 | 69 | CN1CCN(c2nc(N)nc3cc(C(=O)NC(Cc4ccc(-c5ccccc5)cc4)c4nccs4)ccc23)CC1 (stereo not shown) [Example 151, 2-amino-N-[2-biphenyl-4-yl-1-(1,3-thiazol-2-yl)ethyl]-4-(4-methylpiperazin-1-yl)quinazoline-7-carboxamide]
2 | 31 | COc1ccc(Oc2cccc(CC(NC(=O)c3ccc4c(N5CCN(C)CC5)nc(N)nc4c3)C(=O)N(C)C)c2)cc1 (stereo not shown) [Example 166, 2-Amino-N-{2-(dimethylamino)-1-[3-(4-methoxyphenoxy)benzyl]-2-oxoethyl}-4-(4-methylpiperazin-1-yl)quinazoline-7-carboxamide]
3 | 744 | CN1CCN(c2cc(-c3ccc4c(c3)CN(C(=O)N[C@@H]3CCOC3)CC4)nc(N)n2)CC1 [Example 84, 7-[2-Amino-6-(4-methylpiperazin-1-yl)pyrimidin-4-yl]-N-[(3R)-tetrahydrofuran-3-yl]-3,4-dihydroisoquinoline-2(1H)-carboxamide]
4 | 165 | CO[C@H]1Cc2ccccc2[C@H]1NC(=O)N1CCc2ccc(-c3cc(N4CCN(C)CC4)nc(N)n3)cc2C1 [Example 58, 7-[2-Amino-6-(4-methylpiperazin-1-yl)pyrimidin-4-yl]-N-[(1R,2S)-2-methoxy-2,3-dihydro-1H-inden-1-yl]-3,4-dihydroisoquinoline-2(1H)-carboxamide]
5 | 17 | CN1CCN(c2nc(N)nc3cc(C(=O)NCc4ccc(Cl)c(Cl)c4)ccc23)CC1 [Example 131, 2-Amino-N-(3,4-dichlorobenzyl)-4-(4-methylpiperazin-1-yl)quinazoline-7-carboxamide]
6 | 6.6 | COC(=O)c1cccc(-c2ccc(C[C@H](NC(=O)c3ccc4c(N5CCN(C)CC5)nc(N)nc4c3)C(=O)N(C)C)cc2)c1 [Example 158, Methyl 4′-[(2S)-2-({[2-amino-4-(4-methylpiperazin-1-yl)quinazolin-7-yl]carbonyl}amino)-3-(dimethylamino)-3-oxopropyl]biphenyl-3-carboxylate]
7 | 84 | CN1CCN(c2cc(-c3ccc4c(c3)CN(C(=O)N3CCC(c5ccccc5)CC3)CC4)nc(N)n2)CC1 [Example 103, 4-(4-Methylpiperazin-1-yl)-6-{2-[(4-phenylpiperidin-1-yl)carbonyl]-1,2,3,4-tetrahydroisoquinolin-7-yl}pyrimidin-2-amine]
8 | 41 | CN1CCN(c2nc(N)nc3cc(C(=O)N[C@@H](Cc4ccc(-c5cncc(C#N)c5)cc4)C(=O)N(C)C)ccc23)CC1 [Example 156, 2-Amino-N-[(1S)-1-[4-(5-cyanopyridin-3-yl)benzyl]-2-(dimethylamino)-2-oxoethyl]-4-(4-methylpiperazin-1-yl)quinazoline-7-carboxamide]
9 | 33 | CN1CCN(c2cc(-c3ccc4c(c3)CN(C(=O)Cc3ccc(Cl)nc3)CC4)nc(N)n2)CC1 [Example 108, 4-{2-[(6-Chloropyridin-3-yl)acetyl]-1,2,3,4-tetrahydroisoquinolin-7-yl}-6-(4-methylpiperazin-1-yl)pyrimidin-2-amine]
10 | 34 | CN1CCN(c2cc(-c3ccc4c(c3)CN(C(=O)Cc3ccc(C#N)cc3)CC4)nc(N)n2)CC1 [Example 107, 4-{2-[7-[2-Amino-6-(4-methylpiperazin-1-yl)pyrimidin-4-yl]-3,4-dihydroisoquinolin-2(1H)-yl]-2-oxoethyl}benzonitrile]
11 | 38 | CN1CCN(c2cc(-c3ccc4c(c3)CN(C(=O)NC3CCCc5ccccc53)CC4)nc(N)n2)CC1 (stereo not shown) [Example 83, 7-[2-Amino-6-(4-methylpiperazin-1-yl)pyrimidin-4-yl]-N-(1,2,3,4-tetrahydronaphthalen-1-yl)-3,4-dihydroisoquinoline-2(1H)-carboxamide]
12 | 492 | COc1ccc([C@@H](C)NC(=O)c2ccc3c(N4CCN(C)CC4)nc(N)nc3c2)cc1 [Example 30, 2-Amino-N-[(1R)-1-(4-methoxyphenyl)ethyl]-4-(4-methylpiperazin-1-yl)quinazoline-7-carboxamide]
13 | 126 | Cc1ccc(CNC(=O)c2ccc3c(N4CCN(C)CC4)nc(N)nc3c2)cc1Cl [Example 36, 2-Amino-N-(3-chloro-4-methylbenzyl)-4-(4-methylpiperazin-1-yl)quinazoline-7-carboxamide]
14 | 70 | CN1CCN(c2cc(-c3ccc4c(c3)CN(C(=O)C(F)(F)c3ccccc3)CC4)nc(N)n2)CC1 [Example 61, 4-{2-[Difluoro(phenyl)acetyl]-1,2,3,4-tetrahydroisoquinolin-7-yl}-6-(4-methylpiperazin-1-yl)pyrimidin-2-amine]
15 | 24 | CN1CCN(c2cc(-c3ccc4c(c3)CN(C(=O)NC3CCCCC3)CC4)nc(N)n2)CC1 [Example 95, 7-[2-Amino-6-(4-methylpiperazin-1-yl)pyrimidin-4-yl]-N-cyclohexyl-3,4-dihydroisoquinoline-2(1H)-carboxamide]
16 | 24 | COc1cccc(COc2cccc3c2CCN(C(=O)c2ccc4c(N5CCN(C)CC5)nc(N)nc4c2)C3)c1 [Example 208, (2-Amino-4-(4-methylpiperazin-1-yl)quinazolin-7-yl)(5-(3-methoxybenzyloxy)-3,4-dihydroisoquinolin-2(1H)-yl)methanone]
17 | 43 | CN1CCN(c2cc(-c3ccc4c(c3)CN(C(=O)NC3CCC(C(F)(F)F)CC3)CC4)nc(N)n2)CC1 (stereo not shown) [Example 64, 7-[2-Amino-6-(4-methylpiperazin-1-yl)pyrimidin-4-yl]-N-[4-(trifluoromethyl)cyclohexyl]-3,4-dihydroisoquinoline-2(1H)-carboxamide]
18 | 22 | CN1CCN(c2cc(-c3ccc4c(c3)CN(C(=O)CC3(C#N)CCCC3)CC4)nc(N)n2)CC1 [Example 122, 1-{2-[7-[2-Amino-6-(4-methylpiperazin-1-yl)pyrimidin-4-yl]-3,4-dihydroisoquinolin-2(1H)-yl]-2-oxoethyl}cyclopentanecarbonitrile]
19 | 13 | CN1CCN(c2nc(N)nc3cc(C(=O)NCc4cccc(Oc5cnc6ccccc6n5)c4)ccc23)CC1 [Example 188, 2-Amino-4-(4-methylpiperazin-1-yl)-N-[3-(quinoxalin-2-yloxy)benzyl]quinazoline-7-carboxamide]
20 | 106 | CN1CCN(c2nc(N)nc3cc(C(=O)NCc4ccc(Oc5ccccc5)cc4)ccc23)CC1 [Example 34, 2-Amino-4-(4-methylpiperazin-1-yl)-N-(4-phenoxybenzyl)quinazoline-7-carboxamide]
21 | 7.1 | CC(NC(=O)c1ccc2c(N3CCN(C)CC3)nc(N)nc2c1)c1cccc(Oc2ccc(Cl)cc2C#N)c1 (stereo not shown) [Example 197, 2-Amino-N-{1-[3-(4-chloro-2-cyanophenoxy)phenyl]ethyl}-4-(4-methylpiperazin-1-yl)quinazoline-7-carboxamide]
22 | 103 | Cc1cccnc1N1CCC(NC(=O)N2CCc3ccc(-c4cc(N5CCN(C)CC5)nc(N)n4)cc3C2)CC1 [Example 42, 7-[2-Amino-6-(4-methylpiperazin-1-yl)pyrimidin-4-yl]-N-[1-(3-methylpyridin-2-yl)piperidin-4-yl]-3,4-dihydroisoquinoline-2(1H)-carboxamide]
23 | 34 | CC(Cc1ccc(Oc2ccccc2)cc1)NC(=O)c1ccc2c(N3CCN(C)CC3)nc(N)nc2c1 (stereo not shown) [Example 142, 2-Amino-N-[1-methyl-2-(4-phenoxyphenyl)ethyl]-4-(4-methylpiperazin-1-yl)quinazoline-7-carboxamide]
24 | 250 | Cc1cc2c(cc1-c1cc(N3CCN(C)CC3)nc(N)n1)CN(C(=O)NC1CCCCC1)CC2 [Example 78, 7-[2-Amino-6-(4-methylpiperazin-1-yl)pyrimidin-4-yl]-N-cyclohexyl-6-methyl-3,4-dihydroisoquinoline-2(1H)-carboxamide]
25 | 71 | CN1CCN(c2nc(N)nc3cc(C(=O)NC(Cc4ccc(-c5ccccc5)s4)C(=O)N(C)C)ccc23)CC1 (stereo not shown) [Example 147, 2-Amino-N-{2-(dimethylamino)-2-oxo-1-[(5-phenyl-2-thienyl)methyl]ethyl}-4-(4-methylpiperazin-1-yl)quinazoline-7-carboxamide]
26 | 22 | CN1CCN(c2nc(N)nc3cc(C(=O)N[C@@H](Cc4ccc(-c5nc(C(F)(F)F)ccc5C#N)cc4)C(=O)N(C)C)ccc23)CC1 [Example 157, 2-Amino-N-[(1S)-1-{4-[3-cyano-6-(trifluoromethyl)pyridin-2-yl]benzyl}-2-(dimethylamino)-2-oxoethyl]-4-(4-methylpiperazin-1-yl)quinazoline-7-carboxamide]
27 | 99 | CN1CCN(c2cc(-c3ccc4c(c3)CN(C(=O)Nc3nc(-c5ccc(Cl)cc5)cs3)CC4)nc(N)n2)CC1 [Example 48, 7-[2-Amino-6-(4-methylpiperazin-1-yl)pyrimidin-4-yl]-N-[4-(4-chlorophenyl)-1,3-thiazol-2-yl]-3,4-dihydroisoquinoline-2(1H)-carboxamide]
28 | 58 | CN1CCN(c2cc(-c3ccc4c(c3)CN(C(=O)Nc3ccc(C#N)cn3)CC4)nc(N)n2)CC1 [Example 43, 7-[2-Amino-6-(4-methylpiperazin-1-yl)pyrimidin-4-yl]-N-(5-cyanopyridin-2-yl)-3,4-dihydroisoquinoline-2(1H)-carboxamide]
29 | 66 | CN1CCN(c2nc(N)nc3cc(C(=O)NC(Cc4ccc(-c5cccc(F)c5F)nc4)C(=O)N(C)C)ccc23)CC1 (stereo not shown) [Example 163, 2-Amino-N-[1-{[6-(2,3-difluorophenyl)pyridin-3-yl]methyl}-2-(dimethylamino)-2-oxoethyl]-4-(4-methylpiperazin-1-yl)quinazoline-7-carboxamide]
30 | 301 | CN1CCN(c2cc(-c3ccc4c(c3)CN(C(=O)N3CCCC3)CC4)nc(N)n2)CC1 [Example 9, 4-(4-Methylpiperazin-1-yl)-6-[2-(pyrrolidin-1-ylcarbonyl)-1,2,3,4-tetrahydroisoquinolin-7-yl]pyrimidin-2-amine]

Row | SMILES | IC50 [nM]
31 | COC(=O)[C@H](Cc1ccc(OC(=O)NC(C)C)cc1)NC(=O)c1ccc2c(N3CCN(C)CC3)nc(N)nc2c1 [Example 135, (S)-Methyl 2-(2-amino-4-(4-methylpiperazin-1-yl)quinazoline-7-carboxamido)-3-(4-(isopropylcarbamoyloxy)phenyl)propanoate] | 70
